Laboratory results as given in patent US4921850A, “3-propenylcephem derivative” (Eisai Co., Ltd., priority 1986, dated 1990).
In brackets after ≈: the same amount, converted by molar mass. Where two headings read alike, the source gives them in different places.

Assays:
Experiment in all cases: Anti-bacterial activity (MIC), agar dilution
Type in all cases: cell-based
Escher. coli NIHJ = system: Escher. coli NIHJ
Procedure: (§1) MIC (μg/ml) were determined by an agar dilution method [Chemotherapy (Japan), 29, 76-79, 1981]. Overnight cultures of the bacterial strains in Mueller-Hinton broth were diluted to final concentration of about 10^6 CFU/ml, and 5 μl of each bacterial suspension was spotted onto Mueller-Hinton agar plates that contained twofold serial dilutions of antibiotics. MICs were measured after incubation for 18 hours at 37° C.

Kleb. pneumoniae EK-6 = conditions: Kleb. pneumoniae EK-6, agar dilution, about 10^6 CFU/ml, 18 hours, 37° C.
Procedure: as §1

[1] = system: Morganella morganii EP-14; conditions: 37° C.
Procedure: as §1

Pseud. aeruginosa EP-01 = system: Pseud. aeruginosa EP-01
Procedure: as §1

Ser. marcescens ES-75 = system: Ser. marcescens ES-75
Procedure: as §1

Staph. aureus 209-P = system: Staph. aureus 209-P
Procedure: as §1

[2] = Escherichia coli, 18 h, Escher. coli NIHJ, agar dilution, about 10^6 CFU/ml, 18 hours, 37° C., read-out: MIC
[3] = Klebsiella pneumoniae, EK6, 18 h, read-out: MIC
[4] = Morganella morganii, EP14, 18 h, about 10^6 CFU/ml, read-out: MIC
[5] = Pseudomonas aeruginosa, EP01, 18 h, Pseud. aeruginosa EP-01, agar dilution, about 10^6 CFU/ml, 18 hours, 37° C., read-out: MIC
[6] = Serratia marcescens, ES75, 18 h, Ser. marcescens ES-75, agar dilution, about 10^6 CFU/ml, 18 hours, 37° C., read-out: MIC
[7] = Staphylococcus aureus, 209P, 18 h, Staph. aureus 209-P, agar dilution, about 10^6 CFU/ml, 18 hours, 37° C., read-out: MIC
[8] = Escher. coli NIHJ, agar dilution, about 10^6 CFU/ml, 18 hours, 37° C.
[9] = Pseud. aeruginosa EP-01, agar dilution, about 10^6 CFU/ml, 18 hours, 37° C.
[10] = Ser. marcescens ES-75, agar dilution, about 10^6 CFU/ml, 18 hours, 37° C.
[11] = Staph. aureus 209-P, agar dilution, about 10^6 CFU/ml, 18 hours, 37° C.
[12] = Serratia marcescens, ES75, 18 h
[13] = Staphylococcus aureus, 209P, 18 h

Compound | MIC (Escher. coli NIHJ; [2]) [µg/mL] | MIC (Kleb. pneumoniae EK-6; [3]) [µg/mL] | MIC [1, 4] [µg/mL] | MIC (Pseud. aeruginosa EP-01; [5]) [µg/mL] | MIC (Ser. marcescens ES-75; [6]) [µg/mL] | MIC (Staph. aureus 209-P; [7]) [µg/mL] | MIC (Escher. coli NIHJ; [8]) [µg/mL] | MIC (Kleb. pneumoniae EK-6) [µg/mL] | MIC ([1]; about 10^6 CFU/ml, 18 hours) [µg/mL] | MIC (Pseud. aeruginosa EP-01; [9]) [µg/mL] | MIC (Ser. marcescens ES-75; [10]) [µg/mL] | MIC (Staph. aureus 209-P; [11]) [µg/mL] | also measured
CN1CCC[N+]1(C)C/C=C/C1=C(C(=O)[O-])N2C(=O)[C@@H](NC(=O)/C(=N\OCF)c3nsc(N)n3)[C@H]2SC1 (single isomer, unassigned) [Example 122-A, 7β-[2-(5-Amino-1,2,4-thiadiazol-3-yl)-(Z)-2-fluoromethoxyiminoacetamido]-3-[(E)-3-(1,2-dimethyl-1-pyrazolidinio)-1-propen-1-yl]-3-cephem-4-carboxylate] | ≤ 0.025 | ≤ 0.025 | ≤ 0.025 | 0.8 (≈ 1.48 µM) | ≤ 0.025 | 0.2 (≈ 0.37 µM) |  |  |  |  |  |  | 
CN1CCC[N+]1(C)C/C=C/C1=C(C(=O)[O-])N2C(=O)[C@@H](NC(=O)/C(=N\OCF)c3nsc(N)n3)[C@H]2SC1 (single isomer, unassigned) [Example 122-B, 7β-[2-(5-Amino-1,2,4-thiadiazol-3-yl)-(Z)-2-fluoromethoxyiminoacetamido]-3-[(E)-3-(1,2-dimethyl-1-pyrazolidinio)-1-propen-1-yl]-3-cephem-4-carboxylate] |  |  |  |  |  |  | ≤ 0.025 | ≤ 0.025 | ≤ 0.025 | 0.8 (≈ 1.48 µM) | 0.05 (≈ 0.0925 µM) | 0.1 (≈ 0.185 µM) | 
CN1CCC[N+]1(C)C/C=C/C1=C(C(=O)[O-])N2C(=O)[C@@H](NC(=O)/C(=N\OCC#N)c3nsc(N)n3)[C@H]2SC1 (single isomer, unassigned) [Example 160-A] | ≤ 0.025 | ≤ 0.025 | 0.05 (≈ 0.0913 µM) | 0.8 (≈ 1.46 µM) | 0.1 (≈ 0.183 µM) | 0.1 (≈ 0.183 µM) |  |  |  |  |  |  | 
CN1CCC[N+]1(C)C/C=C/C1=C(C(=O)[O-])N2C(=O)[C@@H](NC(=O)/C(=N\OCC#N)c3nsc(N)n3)[C@H]2SC1 (single isomer, unassigned) [Example 160-B] |  |  |  |  |  |  | 0.05 (≈ 0.0913 µM) | 0.05 (≈ 0.0913 µM) | 0.05 (≈ 0.0913 µM) | 0.8 (≈ 1.46 µM) | 0.2 (≈ 0.365 µM) | 0.1 (≈ 0.183 µM) | 
CC(C)(O/N=C(\C(=O)N[C@@H]1C(=O)N2C(C(=O)[O-])=C(C[n+]3ccccc3)CS[C@H]12)c1csc(N)n1)C(=O)O [CAZ, Cefatazidime, reference compound] | 0.2 (≈ 0.366 µM) | 0.1 (≈ 0.183 µM) | 0.1 (≈ 0.183 µM) |  |  |  |  |  |  |  |  |  | MIC (Pseud. aeruginosa EP-01; Pseudomonas aeruginosa, EP01, 18 h): 1.56 µg/mL (≈ 2.85 µM); MIC (Ser. marcescens ES-75; [12]): 0.2 µg/mL (≈ 0.366 µM); MIC (Staph. aureus 209-P; [13]): 6.25 µg/mL (≈ 11.4 µM)
CN(C)CCn1nnnc1SCC1=C(C(=O)O)N2C(=O)[C@@H](NC(=O)Cc3csc(N)n3)[C@H]2SC1 [CTM, Cefotiam, reference compound] | 0.1 (≈ 0.19 µM) | 0.1 (≈ 0.19 µM) | 0.2 (≈ 0.38 µM) | > 100 | 6.25 (≈ 11.9 µM) | 0.2 (≈ 0.38 µM) |  |  |  |  |  |  | 
CC[N+](C)(C/C=C/C1=C(C(=O)[O-])N2C(=O)[C@@H](NC(=O)/C(=N\OCF)c3nsc(N)n3)[C@H]2SC1)CC(N)=O (stereo partly drawn) [Example 1, 7β-[2-(5-Amino-1,2,4-thiadiazol-3-yl)-(Z)-2-fluoromethoxyiminoacetamido]-3-[(E)-3-(carbamoylmethylethylmethylammonio)-1-propen-1-yl]-3-cephem-4-carboxylate] |  |  |  |  |  |  |  |  |  |  |  |  | MIC (Escher. coli NIHJ; Escherichia coli, 18 h): ≤ 0.025 µg/mL; MIC (Kleb. pneumoniae EK-6; Klebsiella pneumoniae, EK6, read-out: MIC): ≤ 0.025 µg/mL; MIC ([1]; EP14, about 10^6 CFU/ml, 18 hours, read-out: MIC): ≤ 0.025 µg/mL; MIC (Pseud. aeruginosa EP-01; Pseudomonas aeruginosa, EP01, Pseud. aeruginosa EP-01, agar dilution, about 10^6 CFU/ml, 18 hours, 37° C., read-out: MIC): 0.8 µg/mL (≈ 1.44 µM); MIC (Ser. marcescens ES-75; [12]): 0.1 µg/mL (≈ 0.18 µM); MIC (Staph. aureus 209-P; [13]): 0.2 µg/mL (≈ 0.359 µM)
CC(O)C[N+](C)(C)C/C=C/C1=C(C(=O)[O-])N2C(=O)[C@@H](NC(=O)/C(=N\OCF)c3nsc(N)n3)[C@H]2SC1 (stereo partly drawn) [Example 4, 7β-[2-(5-Amino-1,2,4-thiadiazol-3-yl)-(Z)-2-fluoromethoxyiminoacetamido]-3-[(E)-3-[(2-hydroxypropyl)dimethylammonio]-1-propen-1-yl]-3-cephem-4-carboxylate] | 0.05 (≈ 0.092 µM) | ≤ 0.025 | 0.05 (≈ 0.092 µM) | 0.8 (≈ 1.47 µM) | 0.1 (≈ 0.184 µM) | 0.4 (≈ 0.736 µM) |  |  |  |  |  |  | 
C[N+]1(C/C=C/C2=C(C(=O)[O-])N3C(=O)[C@@H](NC(=O)/C(=N\OCF)c4nsc(N)n4)[C@H]3SC2)C[C@H](O)C[C@H]1CO (stereo partly drawn) [Example 8, 7β-[2-(5-Amino-1,2,4-thiadiazol-3-yl)-(Z)-2-fluoromethoxyiminoacetamido]-3-[(E)-3-(4R-hydroxy-2S-hydroxymethyl-1-methyl-1-pyrrolidinio)-1-propen-1-yl]-3-cephem-4-carboxylate] | ≤ 0.025 | ≤ 0.025 | ≤ 0.025 | 0.8 (≈ 1.4 µM) | ≤ 0.025 | 0.2 (≈ 0.35 µM) |  |  |  |  |  |  | 
NC(=O)C[N+]1(C/C=C/C2=C(C(=O)[O-])N3C(=O)[C@@H](NC(=O)/C(=N\OCF)c4nsc(N)n4)[C@H]3SC2)CCC(O)C1 (stereo partly drawn) [Example 9-2, 7β-[2-(5-Amino-1,2,4-thiadiazol-3-yl)-(Z)-2-fluoromethoxyiminoacetamido]-3-[(E)-3-(1-carbamoylmethyl-3-hydroxy-1-pyrrolidinio)-1-propen-1-yl]-3-cephem-4-carboxylate] |  |  |  |  |  |  | ≤ 0.025 | ≤ 0.025 | ≤ 0.025 | 0.8 (≈ 1.37 µM) | ≤ 0.025 | 0.4 (≈ 0.684 µM) | 
NC(=O)C[N+]1(C/C=C/C2=C(C(=O)[O-])N3C(=O)[C@@H](NC(=O)/C(=N\OCF)c4nsc(N)n4)[C@H]3SC2)CCC(O)C1 (stereo partly drawn) [Example 9-3, 7β-[2-(5-Amino-1,2,4-thiadiazol-3-yl)-(Z)-2-fluoromethoxyiminoacetamido]-3-[(E)-3-(1-carbamoylmethyl-3-hydroxy-1-pyrrolidinio)-1-propen-1-yl]-3-cephem-4-carboxylate] |  |  |  |  |  |  | ≤ 0.025 | ≤ 0.025 | ≤ 0.025 | 0.8 (≈ 1.37 µM) | ≤ 0.025 | 0.4 (≈ 0.684 µM) | 
N#CC[N+]1(C/C=C/C2=C(C(=O)[O-])N3C(=O)[C@@H](NC(=O)/C(=N\OCF)c4nsc(N)n4)[C@H]3SC2)CCCC1 [Example 14] |  | ≤ 0.025 | ≤ 0.025 | 0.8 (≈ 1.45 µM) | 0.05 (≈ 0.0908 µM) | 0.2 (≈ 0.363 µM) |  |  |  |  |  |  | MIC (Escher. coli NIHJ; Escherichia coli, 18 h): ≤ 0.025 µg/mL
Nc1nc(/C(=N/OCF)C(=O)N[C@@H]2C(=O)N3C(C(=O)[O-])=C(/C=C/C[N+]4(CCO)CCC[C@@H]4CO)CS[C@H]23)ns1 (stereo partly drawn) [Example 16] | ≤ 0.025 | ≤ 0.025 | ≤ 0.025 | 0.8 (≈ 1.37 µM) | ≤ 0.025 | 0.2 (≈ 0.342 µM) |  |  |  |  |  |  | 
NC(=O)C[N+]1(C/C=C/C2=C(C(=O)[O-])N3C(=O)[C@@H](NC(=O)/C(=N\OCF)c4nsc(N)n4)[C@H]3SC2)CCC[C@@H]1CO (stereo partly drawn) [Example 17] | ≤ 0.025 | ≤ 0.025 | ≤ 0.025 | 0.8 (≈ 1.34 µM) | ≤ 0.025 | 0.4 (≈ 0.668 µM) |  |  |  |  |  |  | 

Continued, in another order:

MIC (Escher. coli NIHJ; [2]) [µg/mL] | MIC (Kleb. pneumoniae EK-6; [3]) [µg/mL] | MIC [1, 4] [µg/mL] | MIC (Pseud. aeruginosa EP-01; [5]) [µg/mL] | MIC (Ser. marcescens ES-75; [6]) [µg/mL] | MIC (Staph. aureus 209-P; [7]) [µg/mL] | MIC (Escher. coli NIHJ; [8]) [µg/mL] | MIC (Kleb. pneumoniae EK-6) [µg/mL] | MIC ([1]; about 10^6 CFU/ml, 18 hours) [µg/mL] | MIC (Pseud. aeruginosa EP-01; [9]) [µg/mL] | MIC (Ser. marcescens ES-75; [10]) [µg/mL] | MIC (Staph. aureus 209-P; [11]) [µg/mL] | Compound | also measured
0.05 (≈ 0.0875 µM) | ≤ 0.025 | ≤ 0.025 | 1.56 (≈ 2.73 µM) | ≤ 0.025 | 0.4 (≈ 0.7 µM) |  |  |  |  |  |  | Nc1nc(/C(=N/OCF)C(=O)N[C@@H]2C(=O)N3C(C(=O)[O-])=C(/C=C/C[N+]4(CCO)CCC(O)C4)CS[C@H]23)ns1 (stereo partly drawn) [Example 15-1] | 
 |  |  |  |  |  | ≤ 0.025 | ≤ 0.025 | ≤ 0.025 | 1.56 (≈ 2.73 µM) | ≤ 0.025 | 0.4 (≈ 0.7 µM) | Nc1nc(/C(=N/OCF)C(=O)N[C@@H]2C(=O)N3C(C(=O)[O-])=C(/C=C/C[N+]4(CCO)CCC(O)C4)CS[C@H]23)ns1 (stereo partly drawn) [Example 15-2] | 
